The numbers were not newly measured in patent US7842720B2, “Anticancer and antiprotozoal dihydroartemisinene and dihydroartemisitene dimers with desirable chemical functionalities” (Elsohly Laboratories, Incorporated, priority 2004, dated 2010), which cites them from elsewhere.

Data set [1] deals with chloroquine-sensitive and chloroquine-resistant strains of Plasmodium falciparum.
A further data set deals with malaria. Conditions: comparison among artemisinin derivatives.

As for `C[C@@H]1CC[C@H]2[C@@H](C)C(=O)O[C@@H]3O[C@@]4(C)CC[C@@H]1[C@]32OO4` [artemisinin], in data set [1], the anti-malarial activity result was “anti-malarial activity”. Consider `C[C@H]1[C@H](OC(=O)CCC(=O)[O-])O[C@@H]2O[C@@]3(C)CC[C@H]4[C@H](C)CC[C@@H]1[C@@]24OO3.[Na+]` [sodium artesunate], for which, in the data set with malaria, the “anti-malarial activity relative to comparator” value was “more activity”.
